Among the data in patent publication US9951045B2, “Indazole compounds as 5-HT4 receptor agonists” (SUVEN LIFE SCIENCES LIMITED, priority 2013, dated 2018) are EC50 values, retold here.

Counter-ions that a name gives are not always drawn. A value given as a limit tells only on which side of the number the result lay.

T1 sequence (Q13639 whole entry): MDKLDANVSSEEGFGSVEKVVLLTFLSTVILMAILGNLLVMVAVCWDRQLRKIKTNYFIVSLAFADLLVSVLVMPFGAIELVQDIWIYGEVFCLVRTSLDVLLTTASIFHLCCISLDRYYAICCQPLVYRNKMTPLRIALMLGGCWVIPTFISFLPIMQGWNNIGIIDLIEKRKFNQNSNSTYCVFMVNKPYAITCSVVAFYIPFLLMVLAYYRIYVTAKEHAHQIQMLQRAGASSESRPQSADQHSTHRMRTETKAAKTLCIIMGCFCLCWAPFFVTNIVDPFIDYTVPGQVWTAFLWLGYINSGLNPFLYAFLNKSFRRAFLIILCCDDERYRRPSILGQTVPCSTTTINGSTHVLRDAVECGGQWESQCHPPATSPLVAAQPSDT

The assay concerns the target T1, recombinant human 5-HT4 receptor (Homo sapiens, UniProt Q13639).
T1 construct: expressed in transfected cells
Put plainly: Determination of EC50 values for 5-HT4 receptor (CHO cells, pCRE-Luc reporter). To be noted: luciferase reporter, 4 hours incubation, read-out: 5-HT4 receptor agonistic binding in-vitro EC50. Type of assay: cell-based. How it is done: A stable CHO cell line expressing recombinant human 5-HT4 receptor and pCRE-Luc reporter system was used for cell-based assay. The assay offers a non-radioactive based approach to determine binding of a compound to GPCRs. In this specific assay, the level of intracellular cyclic AMP, which is modulated by activation, or inhibition of the receptor is measured. The recombinant cells harbor luciferase reporter gene under the control of cAMP response element.
The above cells were grown in 96 well clear bottom white plates in Hams F12 medium containing 10% fetal bovine serum (FBS). Prior to the addition of compounds or standard agonist, cells were serum starved overnight. Increasing concentrations of test compounds were added in OptiMEM medium to the cells. The incubation was continued at 37° C. in CO2 incubator for 4 hours. Medium was removed and cells were washed with phosphate buffered saline. The cells were lysed and luciferase activity was measured in a Luminometer. Luminescence units were plotted against the compound concentrations using Graphpad software. EC50 values of the compounds were defined as the concentration required in stimulating the luciferase activity by 50%.
(In general: Reporter assays use an easily measured gene product as a stand-in for the process of interest.)
With `CC(C)n1cc2cccc(C(=O)NCC3(F)CCN(CC4(O)CCOCC4)CC3)c2n1` [Example 31, N—[N-(4-hydroxytetrahydropyran-4-ylmethyl)-4-fluoropiperidin-4-ylmethyl]-2-isopropyl-2H-indazole-7-carboxamide L(+) Tartarate], the EC50 lay within 1.1 to 5 nM.

With `CC(C)n1cc2cccc(C(=O)NCC3CCN(CC4CCOC4)CC3)c2n1` (stereo not shown) [Example 23, N—[(N-tetrahydrofuran-3-ylmethyl)piperidin-4-ylmethyl]-2-isopropyl-2H-indazole-7-carboxamide], the EC50 is no more than 1 nM.

`CC(C)n1cc2cccc(C(=O)NCC3CCN(C4CCCCC4)CC3)c2n1` [Example 15, N—(N-cyclohexylpiperidin-4-ylmethyl)-2-isopropyl-2H-indazole-7-carboxamide fumarate]: the EC50 was no more than 1 nM.

`CC(C)n1cc2cccc(C(=O)NCC3(F)CCN(CC(C)(C)O)CC3)c2n1` [Example 35, N—[N-(2-hydroxy-2-methylpropyl)-4-fluoropiperidin-4-ylmethyl]-2-isopropyl-2H-indazole-7-carboxamide L(+) Tartarate]: the EC50 fell in the range of 5.1 to 20 nM.

Consider `CC(C)n1cc2cccc(C(=O)NCC3CN(CC4CCOCC4)CCO3)c2n1` (stereo not shown) [Example 9, N—[(N-tetrahydropyran-4-ylmethyl)morpholine-2-ylmethyl]-2-isopropyl-2H-indazole-7-carboxamide], for which the EC50 lay within 5.1 to 20 nM.

As to `CCn1cc2cccc(C(=O)NCC3C4CN(C5CCOCC5)CC34)c2n1` (stereo not shown) [Example 18, N—[N-(tetrahydropyran-4-yl)-3-azabicyclo[3.1.0]hexane-6-ylmethyl]-2-ethyl-2H-indazole-7-carboxamide oxalate], the EC50 lay within 5.1 to 20 nM.

For `CC(C)n1cc2cccc(C(=O)NCC3(O)CCN(C4CCOCC4)CC3)c2n1` [Example 27, N—[(N-tetrahydropyran-4-yl)-4-hydroxypiperidin-4-ylmethyl]-2-isopropyl-2H-indazole-7-carboxamide fumarate], the EC50 lay within 1.1 to 5 nM.

Consider `CC(C)n1cc2cccc(C(=O)NCC3CCN(CCC(C)(C)O)CC3)c2n1` [Example 29, N—[N-(3-Hydroxy-3-methylbutyl)piperidin-4-ylmethyl]-2-isopropyl-2H-indazole-7-carboxamide], for which the EC50 is no more than 1 nM.

In the case of `COC(C)(C)CN1CCC(CNC(=O)c2cccc3cn(C(C)C)nc23)CC1` [Example 33, N—[N-(2-Methoxy-2-methylpropyl)piperidin-4-ylmethyl]-2-isopropyl-2H-indazole-7-carboxamide], the EC50 is no more than 1 nM.

On to `CC(C)n1cc2cccc(-c3nnc(C4CCN(C5CCOCC5)CC4)o3)c2n1` [Example 39, 2-Isopropyl-7-{5-[1-(tetrahydropyran-4-yl)piperidin-4-yl]-[1,3,4]oxadiazol-2-yl}-2H-indazole fumarate], for which the EC50 fell in the range of 1.1 to 5 nM.

As to `CC(C)n1cc2cccc(C(=O)NCC3C4CN(CC5CCOCC5)CC34)c2n1` (stereo not shown) [Example 10, N—[N-(tetrahydropyran-4-ylmethyl)-3-azabicyclo[3.1.0]hexane-6-ylmethyl]-2-isopropyl-2H-indazole-7-carboxamide], the EC50 lay in the range of 1.1 to 5 nM.

On to `CCn1cc2cccc(C(=O)NCC3C4CN(CCCOC)CC34)c2n1` (stereo not shown) [Example 5, N—[N-(3-methoxypropyl)-3-azabicyclo[3.1.0]hexane-6-ylmethyl]-2-ethyl-2H-indazole-7-carboxamide oxalate], for which the EC50 fell in the range of 1.1 to 5 nM.

`CC(C)n1cc2cccc(C(=O)NCC3CCN(C4CCC4)CC3)c2n1` [Example 14, N—(N-cyclobutylpiperidin-4-ylmethyl)-2-isopropyl-2H-indazole-7-carboxamide fumarate]: the EC50 is no more than 1 nM.

`CC(C)n1cc2cccc(C(=O)NCC3CN(Cc4ccccc4)CCO3)c2n1` (stereo not shown) [Example 8, N—[N-benzylmorpholin-2-ylmethyl]-2-isopropyl-2H-indazole-7-carboxamide fumarate]: the EC50 fell in the range of 20.1 to 50 nM.

Take `CC(C)n1cc2cccc(C(=O)NC3CCN(CC4CC4)CC3)c2n1` [Example 20, N—(N-cyclopropylmethylpiperidine-4-yl)-2-isopropyl-2H-indazole-7-carboxamide fumarate]: the 50% effective concentration (EC50) was 5.1 to 20 nM.

Consider `CCn1cc2cccc(C(=O)NCC3CCN(CCCOC)CC3)c2n1` [Example 4, N—[N-(3-methoxypropyl)piperidin-4-ylmethyl]-2-ethyl-2H-indazole-7-carboxamide fumarate], for which the EC50 is no more than 1 nM.

For `CC(C)n1cc2cccc(C(=O)NCC3C4CN(C5CCOCC5)CC34)c2n1` (stereo not shown) [Example 12, N—[N-(tetrahydropyran-4-yl)-3-azabicyclo[3.1.0]hexane-6-ylmethyl]-2-isopropyl-2H-indazole-7-carboxamide], the EC50 lay in the range of 1.1 to 5 nM.

As to `CC(C)n1cc2cccc(C(=O)NCC3CCN(CC(C)(C)F)CC3)c2n1` [Example 34, N—[N-(2-fluoro-2-methylpropyl)piperidin-4-ylmethyl]-2-isopropyl-2H-indazole-7-carboxamide L(+) Tartarate], the concentration giving a half-maximal response (EC50) is no more than 1 nM.

Take `CC(C)n1cc2cccc(C(=O)NCC3CCN(CCF)CC3)c2n1` [Example 7, N—[N-(2-fluoroethyl)piperidin-4-ylmethyl]-2-isopropyl-2H-indazole-7-carboxamide]: the EC50 was 5.1 to 20 nM.

On to `COCCCN1CCC(c2nnc(-c3cccc4cn(C(C)C)nc34)o2)CC1` [Example 37, 2-isopropyl-7-{5-[1-(3-methoxypropyl)piperidin-4-yl]-[1,3,4]oxadiazol-2-yl)}-2H-indazole fumarate], for which the EC50 was 5.1 to 20 nM.

Consider `CC(C)n1cc2cccc(C(=O)NCC3(O)CCN(CC(C)(C)O)CC3)c2n1` [Example 30, N—[N-(2-hydroxy-2-methylpropyl)-4-hydroxypiperidin-4-ylmethyl]-2-isopropyl-2H-indazole-7-carboxamide oxalate], for which the EC50 was 1.1 to 5 nM.

As for `COCCN1CCC(CNC(=O)c2cccc3cn(C(C)C)nc23)CC1` [Example 25, N—[N-(2-methoxyethyl)piperidin-4-ylmethyl]-2-isopropyl-2H-indazole-7-carboxamide fumarate], the EC50 was in the range of 1.1 to 5 nM.

On to `CC(C)n1cc2cccc(C(=O)NCC3(O)CCN(CC4CCOCC4)CC3)c2n1` [Example 26, N—[(N-tetrahydropyran-4-ylmethyl)-4-hydroxypiperidin-4-ylmethyl]-2-isopropyl-2H-indazole-7-carboxamide fumarate], for which the EC50 is 1.1 to 5 nM.

For the compound `COCCCN1CCC(CNC(=O)c2cccc3cn(C(C)C)nc23)CC1` [Example 24, N—[N-(3-methoxypropyl)piperidin-4-ylmethyl]-2-isopropyl-2H-indazole-7-carboxamide fumarate], the EC50 was no more than 1 nM.

Consider `CC(C)n1cc2cccc(C(=O)NCC3(F)CCN(CC4CCOCC4)CC3)c2n1` [Example 22, N—[(N-tetrahydropyran-4-ylmethyl)-4-fluoropiperidin-4-ylmethyl]-2-isopropyl-2H-indazole-7-carboxamide], for which the EC50 is 1.1 to 5 nM.

As for `CC(C)n1cc2cccc(C(=O)NCC3CCN(CC4(O)CCOCC4)CC3)c2n1` [Example 17, N—[N-(4-hydroxytetrahydropyran-4-ylmethyl)piperidin-4-ylmethyl]-2-isopropyl-2H-indazole-7-carboxamide fumarate], the EC50 is no more than 1 nM.

Consider `CC(C)n1cc2cccc(-c3nnc(C4CCN(CC5CCOCC5)CC4)o3)c2n1` [Example 38, 2-Isopropyl-7-{5-[1-(tetrahydropyran-4-ylmethyl)piperidin-4-yl]-[1,3,4]oxadiazol-2-yl}-2H-indazole fumarate], for which the EC50 lay in the range of 5.1 to 20 nM.

Consider `CC(C)N1CCC(CNC(=O)c2cccc3cn(C(C)C)nc23)CC1` [Example 13, N—(N-isopropylpiperidin-4-ylmethyl)-2-isopropyl-2H-indazole-7-carboxamide fumarate], for which the EC50 was no more than 1 nM.

In the case of `COCCCN1CCC(O)(CNC(=O)c2cccc3cn(C(C)C)nc23)CC1` [Example 28, N—[N-(3-methoxypropyl)-4-hydroxypiperidin-4-ylmethyl]-2-isopropyl-2H-indazole-7-carboxamide fumarate], the EC50 is 1.1 to 5 nM.

As for `CC(C)n1cc2cccc(C(=O)NCC3CCN(CC4(O)CCCC4)CC3)c2n1` [Example 11, N—[N-(1-hydroxycyclopentylmethyl)piperidin-4-ylmethyl]-2-isopropyl-2H-indazole-7-carboxamide L(+) tartarate], the EC50 was no more than 1 nM.

In the case of `CC(C)n1cc2cccc(C(=O)NCC3C4CN(CC(C)(C)O)CC34)c2n1` (stereo not drawn) [Example 36, N—[N-(2-hydroxy-2-methylpropyl)-3-azabicyclo[3.1.0]hexane-6-ylmethyl]-2-isopropyl-2H-indazole-7-carboxamide L(+) Tartarate], the EC50 was 5.1 to 20 nM.

On to `CC(C)N1CC2C(CNC(=O)c3cccc4cn(C(C)C)nc34)C2C1` (stereo not shown) [Example 16, N—(N-isopropyl-3-azabicyclo[3.1.0]hexane-6-ylmethyl)-2-isopropyl-2H-indazole-7-carboxamide fumarate], for which the EC50 fell in the range of 1.1 to 5 nM.

For the compound `CC(C)N1CCC(NC(=O)c2cccc3cn(C(C)C)nc23)CC1` [Example 19, N—(N-isopropylpiperidine-4-yl)-2-isopropyl-2H-indazole-7-carboxamide fumarate], the EC50 was in the range of 20.1 to 50 nM.

As for `CC(C)n1cc2cccc(C(=O)NCC3CCN(CC(C)(C)CO)CC3)c2n1` [Example 6, N—[N-(3-hydroxy-2,2-dimethylpropyl)piperidin-4-ylmethyl]-2-isopropyl-2H-indazole-7-carboxamide L(+) Tartarate], the EC50 was no more than 1 nM.

The EC50 is the concentration at which the effect is half-maximal.
